US10723716B2, “Alpha-helix mimetics as modulators of Abeta self-assembly” (New York University, priority 2016, dated 2020)

How the values were obtained:
Aβ42 [1] = biological target: T1, Aβ42 (Homo sapiens, UniProt P05067); experiment: ELISA with Aβ oligomer-specific antibody (OMAB); format: biochemical; settings: for Aβ42 oligomers by ELISA on delayed addition: 2 μM Aβ42, compound added at 3 h and 6 h, equimolar; for ELISA absorbance (soluble Aβ42 oligomers, OMAB): Aβ42 incubated with compound, equimolar ratio, all time points
T1 construct: Cleavage of APP results in several Aβ isoforms; The predominant species are Aβ42 and Aβ40; purchased Anaspec (Fremont, Calif., USA)
T1 sequence (P05067 672-713 limits assumed): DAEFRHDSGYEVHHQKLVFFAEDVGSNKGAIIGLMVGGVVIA
Description: The ELISA was performed according to a previously published method (see Lindhagen-Persson, M.; Brännström, K.; Vestling, M.; Steinitz, M.; Olofsson, A. PLoS ONE 2010, 5, e13928). A Nunc-Immuno MaxiSorp plate (Sigma Aldrich, St. Louis, Mo., USA) was incubated with 2 μg mL^−1 Aβ oligomer-specific antibody (OMAB, Agrisera, Sweden) in PBS buffer overnight at 4° C. (200 μl/well). Wells were blocked with 5% fat-free milk in PBS buffer with 0.1% Tween 20 (PBST) for 1 h at 4° C. and washed with PBST buffer (×3). Wells were then treated with Aβ42 samples overnight at 4° C. […] Samples were diluted by 1:30 in PBS buffer before adding to a 96-well plate. After adding Aβ42 samples, the wells were washed (×3) with PBST buffer followed by the addition of 6E10 antibody (1/1000 dilution in 5% nonfat free milk in PBST buffer) for 1 h at r.t. Wells were washed (×5) with PBST buffer and treated with an anti-mouse HRP-conjugated IgG (1/10,000 dilution in 5% nonfat free milk in PBST buffer). Wells were washed (×5) with PBST buffer and treated with TMB Peroxidase EIA Substrate Kit (Biorad, Hercules, Calif., USA). The plates were developed until the color of the solution turned blue. The reaction was stopped by adding 100 μL of 1N H2SO4 to each well. The color of the solution changed to yellow from blue. The absorbance was recorded at 450 nm on a FlexStation 3 Multi-Mode Microplate reader from Molecular Devices (Sunnyvale, Calif., USA). Each sample was repeated in triplicate.

[2] = biological target: T2, Nα-amino-terminal fluorescein-labeled Aβ40 (Homo sapiens, UniProt P05067); experiment: Fluorescence titration; settings: 20 mM NaPi, 1% TFE, pH 7.4; read-out: apparent binding affinity (app. Kd)
T2 construct: fluorescein-labeled Aβ40 was purchased from Anaspec (Fremont, Calif., USA); purchased Anaspec (Fremont, Calif., USA)
T2 sequence (P05067 672-711 limits assumed): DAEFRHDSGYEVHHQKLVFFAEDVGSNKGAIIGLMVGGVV
Description: N^α-amino-terminal fluorescein-labeled Aβ40 was purchased from Anaspec (Fremont, Calif., USA) and used without further purification. To ensure the monomeric state of N^α-amino-terminal fluorescein-labeled Aβ40, the peptide was treated similar to other peptides and stored at −80° C. in the dark until use. Fluorescence measurements were performed on a FlexStation 3 Multi-Mode Microplate reader from Molecular Devices (Sunnyvale, Calif., USA). Fluorescence titrations were conducted in triplicate in a 96-well plate with a final well volume of 200 μL. For fluorescence measurements, the fluorescein dye was excited at 492 nm and the spectra were recorded from 500 nm to 600 nm. […] The plot was fitted using a sigmoidal fit to extract the apparent binding affinity.

Aβ42 [3] = biological target: T1, Aβ42; experiment: PICUP SDS-PAGE of Aβ42 oligomers; format: biochemical; settings: 5 μM Aβ42, equimolar ratio
Description: The reaction mixture was irradiated for 30 s using filament lamp (power=150 W) by keeping it 20 cm away from the bottom of the reaction tubes. The cross-linking reaction was then quenched immediately with dithiothreitol (1 M, 1 μL, Sigma Aldrich, St. Louis, Mo., USA). The samples were incubated on ice for 15 min. followed by the addition of SDS buffer. The samples were heated at 90° C. for 5 min. and then centrifuged. […] The samples were applied to Nu-PAGE electrophoresis in 12% Bis-Tris gels with SDS-PAGE buffer. The protein samples were stained with a silver stain kit from Sigma Aldrich (St. Louis, Mo., USA).

Aβ40 = biological target: T3, Aβ40 (Homo sapiens, UniProt P05067); experiment: Seed-catalyzed kinetic assay, Aβ40; format: biochemical; settings: 20 μM Aβ40, 10% seeds, equimolar ratio
T3 construct: Cleavage of APP results in several Aβ isoforms; The predominant species are Aβ42 and Aβ40; purchased Anaspec (Fremont, Calif., USA)
T3 sequence (P05067 672-711 limits assumed): as above
Description: Seeds of Aβ40/Aβ42 were prepared by incubating 200 μM of Aβ40/Aβ42 in phosphate buffer at room temperature. The samples were aged for 48 h and the formation of fibers was confirmed by TEM and ThT before storage at −20° C. until use. For the aggregation of Aβ40, 10% (based on the monomeric Aβ40, v/v) seeds were added along with ThT in phosphate buffer to the 96-well plate. The aggregation was initiated by the addition of monomeric Aβ40 followed by gentle mixing. The process was similar in the case of Aβ42 except that the seed concentration was 5% (based on the monomeric Aβ42, v/v).
The seeds were generated by aging 200 μM Aβ peptides for 48 h in phosphate buffer with occasional vortexing. The concentration of seeds was calculated based on the monomeric concentration of Aβ.

Aβ42 [4] = biological target: T1, Aβ42; experiment: Dynamic light scattering of Aβ42 species; format: biochemical
Description: The particle size distribution of 5 μM Aβ42 increased from a range of hydrodynamic radii of 40-80 nm to 100-500 nm after incubation for 24 h (FIG. 4a).

IAPP = biological target: T4, IAPP (Homo sapiens, UniProt P10997); experiment: Lipid (LUV) catalyzed IAPP aggregation, ThT; format: biochemical; settings: 10 μM IAPP, LUVs (DOPG:DOPC 1:1, 600 μM), equimolar ratio
T4 construct: purchased Anaspec (Fremont, Calif., USA)
T4 sequence (P10997 34-70 limits assumed): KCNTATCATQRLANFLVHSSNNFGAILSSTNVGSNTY
Description: LUVs were prepared using an equimolar ratio of dioleoylphosphatidylglycerol (DOPG) and dioleoylphosphatidylcholine (DOPC). A solution of DOPG and DOPC (10 mg/mL each) in chloroform was mixed, dried over a stream of argon (g) for 1 h, and then lyophilized for 6 h (0.1×10^−3 bar). The solid was then rehydrated in 1 mL phosphate buffer for 30 min. The turbid solution (10 mg/mL, 1:1, DOPG:DOPC) was then extruded (21 times) through 100 nm diameter filters (Whatman, GE Healthcare, Marlborough, Mass., USA). The concentration of the phospholipid content in the extruded material was confirmed by calculating total phosphorus using total phosphate assay as described in Chen, P. S.; Toribara, T. Y.; Warner, H. Anal. Chem. 1956, 28, 1756-1758.
The effect of the α-helical mimetics was also assessed on the membrane associated α-helical conformation of IAPP.

| Structure (SMILES) | Aβ42 oligomers by ELISA on delayed addition (Aβ42 [1]) | ELISA absorbance (soluble Aβ42 oligomers, OMAB) (Aβ42 [1]) | Kd [2] | higher order oligomers of Aβ42 (PICUP, SDS-PAGE) (Aβ42 [3]; 24 h and 36 h) | higher order oligomers of Aβ42 (PICUP, SDS-PAGE) (Aβ42 [3]; up to 12 h) | effect on seed-catalyzed Aβ40 fibrillation (Aβ40) | hydrodynamic radii of Aβ42 particles (Aβ42 [4]; 5 μM Aβ42, equimolar ratio, 24 h incubation) | change in particle size of Aβ42-ADH-41 complex (Aβ42 [4]; after 3 days) | rel. t50 of IAPP fibrillation (IAPP) |
| --- | --- | --- | --- | --- | --- | --- | --- | --- | --- |
| COC(=O)c1ccc(NC(=O)c2ccc(NC(=O)c3ccc(NC(=O)c4ccc([N+](=O)[O-])c(OCC(C)C)n4)c(OCc4ccccc4)n3)c(OCC(=O)O)n2)c(OCC(=O)O)n1 [ADH-31] | no evidence of oligomers | significantly lower |  |  |  |  |  |  |  |
| COC(=O)c1ccc(NC(=O)c2ccc(NC(=O)c3ccc([N+](=O)[O-])c(OCc4ccccc4)n3)c(OCCCN)n2)c(OCCCN)n1 [ADH-41] | no evidence of oligomers | significantly lower | 1400 ± 200 nM | sparse populations | no higher order oligomers | completely arrested | 50-100 nm | No change | 0.8±0.2 |
